Source: patent US8183387B2, “Phenylpyrazole derivatives” (Taisho Pharmaceutical Co., Ltd, priority 2007, dated 2012)

Target: human H3 receptor (Homo sapiens, UniProt Q9Y5N1)
Test: H3 receptor binding test (R(−)-α-methyl[3H]histamine)
Parameters: purchased Euroscreen ES-392-M; host or cells: CHO-K1
Details: inhibition of R(−)-α-methyl[3H]histamine (2 nM) binding, membrane of human H3 receptor-expressing CHO-K1 cells
Method: A membrane preparation of human H3 receptor-expressing CHO-K1 cells (Euroscreen, ES-392-M, 15 μg protein/200 μl), R(−)-α-methyl[^3H]histamine (Amersham, TRK-1017, specific activity: 1.74 TBq/mmol, 2 nM) and a test drug were reacted at room temperature for 1 hour. After completion of the reaction, the reaction mixture was subjected to suction filtration through a 0.3% polyethyleneimine-treated glass filter (GF/C). The glass filter was washed five times with 50 mM Tris-HCl washing solution (pH 7.4) containing 5 mM EDTA. After washing, the glass filter was dried and a scintillator was added thereto, followed by measurement of radioactivity on the filter using a liquid scintillation counter.
A fixed concentration (2 nM) of R(−)-α-methyl[^3H]histamine was reacted under the above conditions with each test drug at various concentrations to obtain an inhibition curve.

Sequence of human H3 receptor (Q9Y5N1 whole entry): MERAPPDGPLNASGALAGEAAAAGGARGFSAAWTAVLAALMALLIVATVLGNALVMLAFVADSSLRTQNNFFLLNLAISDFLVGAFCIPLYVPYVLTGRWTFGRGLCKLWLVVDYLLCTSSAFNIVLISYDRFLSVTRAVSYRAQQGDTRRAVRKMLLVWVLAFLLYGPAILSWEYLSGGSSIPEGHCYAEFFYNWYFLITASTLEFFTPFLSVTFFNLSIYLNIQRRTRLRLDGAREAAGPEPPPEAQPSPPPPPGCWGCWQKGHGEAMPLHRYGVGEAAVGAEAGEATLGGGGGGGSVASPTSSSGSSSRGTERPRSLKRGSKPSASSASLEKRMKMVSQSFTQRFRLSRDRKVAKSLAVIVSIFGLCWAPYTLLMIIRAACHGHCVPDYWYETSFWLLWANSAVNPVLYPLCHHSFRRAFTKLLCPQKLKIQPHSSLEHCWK

IC50 | SMILES
24 nM | CCOC(=O)c1cnn(-c2ccc(OCCCN3CCC[C@H]3C)cc2)c1 [Example 1, 1-(4-{3-[(2R)-2-methylpyrrolidin-1-yl]propoxy}phenyl)-1H-pyrazole-4-carboxylic acid ethyl ester]
6.5 nM | C[C@@H]1CCCN1CCCOc1ccc(-n2cc(C(N)=O)cn2)cc1 [Example 2, 1-(4-{3-[(2R)-2-methylpyrrolidin-1-yl]propoxy}phenyl)-1H-pyrazole-4-carboxamide]
4.6 nM | C[C@@H]1CCCN1CCCOc1ccc(-n2cc(C#N)cn2)cc1 [Example 3, 1-(4-{3-[(2R)-2-methylpyrrolidin-1-yl]propoxy}phenyl)-1H-pyrazole-4-carbonitrile]
33 nM | C[C@H]1CCCN1CCCOc1ccc(-n2cc(C(N)=O)cn2)cc1 [Example 4, 1-(4-{3-[(2S)-2-methylpyrrolidin-1-yl]propoxy}phenyl)-1H-pyrazole-4-carboxamide]
10.8 nM | C[C@H]1CCCN1CCCOc1ccc(-n2cc(C#N)cn2)cc1 [Example 5, 1-(4-{3-[(2S)-2-methylpyrrolidin-1-yl]propoxy}phenyl)-1H-pyrazole-4-carbonitrile]
24.2 nM | O=C(c1cnn(-c2ccc(OCCCN3CCCC3)cc2)c1)N1CCOCC1 [Example 8, 4-({1-[4-(3-pyrrolidin-1-ylpropoxy)phenyl]-1H-pyrazol-4-yl}carbonyl)morpholine]
8.5 nM | O=C(c1cnn(-c2ccc(OCCCN3CCCCC3)cc2)c1)N1CCOCC1 [Example 9, 4-({1-[4-(3-piperidin-1-ylpropoxy)phenyl]-1H-pyrazol-4-yl}carbonyl)morpholine]
49.4 nM | CC1(C)CCCN1CCCOc1ccc(-n2cc(C(=O)N3CCOCC3)cn2)cc1 [Example 10, 4-[(1-{4-[3-(2,2-dimethylpyrrolidin-1-yl)propoxy]phenyl}-1H-pyrazol-4-yl)carbonyl]morpholine]
1.8 nM | CC1CCCN1CCCOc1ccc(-n2cc(C(=O)NC(C)(C)C)cn2)cc1 (stereo not drawn) [Example 11, N-tert-butyl-1-{4-[3-(2-methylpyrrolidin-1-yl)propoxy]phenyl}-1H-pyrazole-4-carboxamide]
19.3 nM | CC1CCC(C)N1CCCOc1ccc(-n2cc(C(=O)NC(C)(C)C)cn2)cc1 (stereo not drawn) [Example 12, N-tert-butyl-1-{4-[3-(2,5-dimethylpyrrolidin-1-yl)propoxy]phenyl}-1H-pyrazole-4-carboxamide]
6.1 nM | CC(C)(C)NC(=O)c1cnn(-c2ccc(OCCCN3CCCC3)cc2)c1 [Example 13, N-tert-butyl-1-[4-(3-pyrrolidin-1-ylpropoxy)phenyl]-1H-pyrazole-4-carboxamide]
13.5 nM | CCN(CC)CCCOc1ccc(-n2cc(C(=O)NC(C)(C)C)cn2)cc1 [Example 14, N-tert-butyl-1-{4-[3-(diethylamino)propoxy]phenyl}-1H-pyrazole-4-carboxamide]
1.8 nM | CC1CCCN1CCCOc1ccc(-n2cc(C(=O)Nc3ccc(F)cc3)cn2)cc1 (stereo not drawn) [Example 15, N-(4-fluorophenyl)-1-{4-[3-(2-methylpyrrolidin-1-yl)propoxy]phenyl}-1H-pyrazole-4-carboxamide]
5.9 nM | O=C(Nc1ccc(F)cc1)c1cnn(-c2ccc(OCCCN3CCCC3)cc2)c1 [Example 16, N-(4-fluorophenyl)-1-[4-(3-pyrrolidin-1-ylpropoxy)phenyl]-1H-pyrazole-4-carboxamide]
3.9 nM | Cc1ccc(NC(=O)c2cnn(-c3ccc(OCCCN4CCCC4C)cc3)c2)cc1 (stereo not drawn) [Example 17, N-(4-methylphenyl)-1-{4-[3-(2-methylpyrrolidin-1-yl)propoxy]phenyl}-1H-pyrazole-4-carboxamide]
3 nM | CC1CCCN1CCCOc1ccc(-n2cc(C(=O)NCc3ccc(F)cc3)cn2)cc1 (stereo not drawn) [Example 18, 1-{4-[3-(2-methylpyrrolidin-1-yl)-propoxy]-phenyl}-1H-pyrazole-4-carboxylic acid 4-fluorobenzylamide]
5.1 nM | CC1CCCN1CCCOc1ccc(-n2cc(C(=O)N(C)C)cn2)cc1 (stereo not drawn) [Example 19, 1-{4-[3-(2-methylpyrrolidin-1-yl)-propoxy]-phenyl}-1H-pyrazole-4-carboxylic acid dimethylamide]
6.9 nM | C[C@@H]1CCCN1CCCOc1ccc(-n2cc(C(=O)N(CCO)CCO)cn2)cc1 [Example 20, 1-(4-{3-[(2R)-2-methylpyrrolidin-1-yl]propoxy}phenyl)-1H-pyrazole-4-carboxylic acid bis-(2-hydroxyethyl)-amide]
5.7 nM | CC1CCCN1CCCOc1ccc(-n2cc(C(=O)N3CCC3)cn2)cc1 (stereo not drawn) [Example 21, azetidin-1-yl-(1-{4-[3-(2-methylpyrrolidin-1-yl)propoxy]phenyl}-1H-pyrazol-4-yl)methanone]
2.7 nM | C[C@@H]1CCCN1CCCOc1ccc(-n2cc(C(=O)N3CCC(F)(F)C3)cn2)cc1 [Example 22, 4-[(3,3-difluoropyrrolidin-1-yl)carbonyl]-1-(4-{3-[(2R)-2-methylpyrrolidin-1-yl]propoxy}phenyl)-1H-pyrazole]
2.2 nM | C[C@@H]1CCCN1CCCOc1ccc(-n2cc(C(=O)c3ccc(F)cc3)cn2)cc1 [Example 23, (4-fluorophenyl)[1-(4-{3-[(2R)-2-methylpyrrolidin-1-yl]propoxy}phenyl)-1H-pyrazol-4-yl]methanone]
3.3 nM | C[C@@H]1CCCN1CCCOc1ccc(-n2cc(C(=O)c3ccccc3)cn2)cc1 [Example 24, [1-(4-{3-[(2R)-2-methylpyrrolidin-1-yl]propoxy}phenyl)-1H-pyrazol-4-yl](phenyl)methanone]
3.5 nM | CC1CCCN1CCCOc1ccc(-n2cc(C(=O)c3ccccn3)cn2)cc1 (stereo not drawn) [Example 25, (1-{4-[3-(2-methylpyrrolidin-1-yl)propoxy]phenyl}-1H-pyrazol-4-yl)(pyridin-2-yl)methanone]
2.6 nM | C[C@@H]1CCCN1CCCOc1ccc(-n2cc(C(=O)c3ccncc3)cn2)cc1 [Example 26, [1-(4-{3-[(2R)-2-methylpyrrolidin-1-yl]propoxy}phenyl)-1H-pyrazol-4-yl](pyridin-4-yl)methanone]
1.6 nM | CC(=O)c1cnn(-c2ccc(OCCCN3CCC[C@H]3C)cc2)c1 [Example 27, 1-[1-(4-{3-[(2R)-2-methylpyrrolidin-1-yl]propoxy}phenyl)-1H-pyrazol-4-yl]ethanone]
3.1 nM | C[C@@H]1CCCN1CCCOc1ccc(-n2cc([N+](=O)[O-])cn2)cc1 [Example 28, 1-(4-{3-[(2R)-2-methylpyrrolidin-1-yl]propoxy}phenyl)-4-nitro-1H-pyrazole]
5.1 nM | C[C@H]1CCCN1CCCOc1ccc(-n2cc(N3CCCC3=O)cn2)cc1 [Example 31, 1-[1-(4-{3-[(2S)-2-methylpyrrolidin-1-yl]propoxy}phenyl)-1H-pyrazol-4-yl]pyrrolidine-2-one]
8.3 nM | O=C1CCCN1c1cnn(-c2ccc(OCCCN3CCCC3)cc2)c1 [Example 32, 1-{1-[4-(3-pyrrolidin-1-ylpropoxy)phenyl]-1H-pyrazol-4-yl}pyrrolidine-2-one]
2.1 nM | CC1CCCN1CCCOc1ccc(-n2cc(N3CCOC3=O)cn2)cc1 (stereo not drawn) [Example 34, 3-(1-{4-[3-(2-methylpyrrolidin-1-yl)propoxy]phenyl}-1H-pyrazol-4-yl)-1,3-oxazolidin-2-one]
4 nM | CC1CCCN1CCCOc1ccc(-n2cc(N3CCCCC3=O)cn2)cc1 (stereo not drawn) [Example 36, 1-(1-{4-[3-(2-methylpyrrolidin-1-yl)propoxy]phenyl}-1H-pyrazol-4-yl)piperidin-2-one]
